The subject of series [1] is NIH 3T3 mouse fibroblast cells. Kind of series: Mitogenic assay (mitogen-induced cell proliferation). The series is classed as cell-based. Conditions: for IC50: Mus musculus, NIH3T3, NIH 3T3 mouse fibroblast cells, mitogen-induced cell proliferation.
For a further series, the target named is T1, red cell Gardos channel (Mus musculus, UniProt O89109).
T1 construct: host or cells: red cells of the SAD mouse, in vivo
Particulars: SAD mouse, oral administration; cited from earlier work.

For the next series, the target named is T2, Gardos channel (Homo sapiens, UniProt O15554).
T2 construct: reduces erythrocyte dehydration in patients with sickle cell disease; host or cells: erythrocytes of sickle cell patients, in vivo
Particulars: patients with sickle cell disease, oral; cited from earlier work.

Series [2] concerns MM-RU human melanoma cells. Conditions: SCID mice inoculated with MM-RU human melanoma cells, daily administration; cited from earlier work.
Series [3] addresses T3, Ca2+-activated potassium channel (Gardos channel) of erythrocytes (Homo sapiens, UniProt O15554).
T3 construct: endogenous in cells; host or cells: erythrocytes
Nature of the series: Gardos channel assay. The series is classed as cell-based. Conditions: for inhibition at 10 µM: 10 μM compound.

The test system of the next series is HT29. Nature of the series: SRB antiproliferative assay HT29. The series is classed as cell-based. Particulars: Homo sapiens. The text has this: (§1) The cells were passaged using Trypsin (Gibco).
In general terms: Sulforhodamine B stains cellular protein and so reports cell mass.

The next series concerns MMRU. Kind of series: SRB antiproliferative assay MMRU. The series is classed as cell-based. Conditions: Homo sapiens.
From the text: as §1

The next series concerns A549. Nature of the series: SRB antiproliferative assay A549. The series is classed as cell-based. Particulars: Homo sapiens.
From the text: as §1

The next series has as its system MCF7. Kind of series: SRB antiproliferative assay MCF7. The series is classed as cell-based. Particulars: Homo sapiens.
From the text: as §1

Another series relates to U118MG. Kind of series: SRB antiproliferative assay U118MG. The series is classed as cell-based. Conditions: Homo sapiens, U-118-MG.
From the text: as §1

The next series has as its system HEPG2. Nature of the series: SRB antiproliferative assay HEPG2. The series is classed as cell-based. Particulars: Homo sapiens.
From the text: as §1

A further series relates to HeLa. Nature of the series: SRB antiproliferative assay HeLa. The series is classed as cell-based. Conditions: Homo sapiens; HeLa (Cervical), 5% FCS/5 day incubation; read-out: Test Compound IC50.
From the text: as §1

The next series has as its system L929. Kind of series: SRB assay normal cells L929. The series is classed as cell-based. Particulars: L929 (Normal mouse), 5% FCS/5 day incubation; read-out: Test Compound IC50.
From the text: as §1

Another series concerns SK-OV-3. Nature of the series: SRB antiproliferative assay SK-OV-3. Conditions: Homo sapiens; SK-OV-3 (Ovary), 5% FCS/5 day incubation; read-out: Test Compound IC50. The series is classed as cell-based.
From the text: as §1

Another series has as its system HUVEC. Nature of the series: SRB assay normal cells HUVEC. Particulars: HUVEC (Normal human), 5% FCS/5 day incubation; read-out: Test Compound IC50. The series is classed as cell-based.
From the text: as §1

A further series relates to HCT-15. Kind of series: SRB antiproliferative assay HCT-15. The series is classed as cell-based. Particulars: Homo sapiens; HCT-15 (Colon), 5% FCS/5 day incubation; read-out: Test Compound IC50.
From the text: as §1

The subject of a further series is GM. Nature of the series: SRB assay normal cells GM. The series is classed as cell-based. Conditions: GM (Normal human), 5% FCS/5 day incubation; read-out: Test Compound IC50.
From the text: as §1

In a further series the test system is SK-MEL-28. Nature of the series: SRB antiproliferative assay SK-MEL-28. The series is classed as cell-based. Conditions: Homo sapiens; SK-MEL-28 (Melanoma), 5% FCS/5 day incubation; read-out: Test Compound IC50.
From the text: as §1

In the next series the test system is CaSki. Nature of the series: SRB antiproliferative assay CaSki. The series is classed as cell-based. Conditions: Homo sapiens, Ca-Ski; CaSki (Cervical), 5% FCS/5 day incubation; read-out: Test Compound IC50.
From the text: as §1

The test system of another series is 3T3. Nature of the series: SRB assay normal cells 3T3. Conditions: NIH3T3; 3T3 (Normal mouse), 5% FCS/5 day incubation; read-out: Test Compound IC50. The series is classed as cell-based.
From the text: as §1

In the next series the test system is HTB174. Kind of series: SRB antiproliferative assay HTB174. The series is classed as cell-based. Conditions: HTB174 (Lung), 5% FCS/5 day incubation; read-out: Test Compound IC50.
From the text: as §1

The next series concerns MDA-MB-23. Nature of the series: SRB antiproliferative assay MDA-MB-23. The series is classed as cell-based. Particulars: MDA-MB-23 (Breast), 5% FCS/5 day incubation; read-out: Test Compound IC50.
From the text: as §1

The test system of a further series is ACHN. Nature of the series: SRB antiproliferative assay ACHN. The series is classed as cell-based. Particulars: Homo sapiens; ACHN (Renal), 5% FCS/5 day incubation; read-out: Test Compound IC50.
From the text: as §1

A further series relates to DU-145. Nature of the series: SRB antiproliferative assay DU-145. The series is classed as cell-based. Conditions: Homo sapiens; DU-145 (Prostate), 5% FCS/5 day incubation; read-out: Test Compound IC50.
From the text: as §1

The mark [4] stands for this setting: MCF7, 5% FCS/3 days, read-out: Test Compound IC50 Value in Cell Lines.
Where [5] appears, read: HT-29, HT29, 5% FCS/3 days, read-out: Test Compound IC50 Value in Cell Lines.
[6] abbreviates: U118MG, 5% FCS/3 days, read-out: Test Compound IC50 Value in Cell Lines.
Where [7] appears, read: MMRU, 5% FCS/3 days, read-out: Test Compound IC50 Value in Cell Lines.
Setting [8] is: A549, A549, 5% FCS/3 days, read-out: Test Compound IC50 Value in Cell Lines.
The mark [9] stands for this setting: HEPG2, 5% FCS/3 days, read-out: Test Compound IC50 Value in Cell Lines.
[10] abbreviates: MCF7 (Breast), 5% FCS/5 day incubation, read-out: Test Compound IC50.
Setting [11] is: HT-29, HT29 (Colon), 5% FCS/5 day incubation, read-out: Test Compound IC50.
[12] abbreviates: U118MG (CNS), 5% FCS/5 day incubation, read-out: Test Compound IC50.
Where [13] appears, read: MMRU (Melanoma), 5% FCS/5 day incubation, read-out: Test Compound IC50.
The mark [14] stands for this setting: A549, A549 (Lung), 5% FCS/5 day incubation, read-out: Test Compound IC50.
Setting [15] is: HEPG2 (Hepatocel), 5% FCS/5 day incubation, read-out: Test Compound IC50.

Where two headings read alike, the source gives them in different places.

The melting point is the temperature, or range, at which the solid turns liquid. Usually IC50 stands for the concentration needed to halve the response being measured. Usually inhibition stands for the change of the read-out against control, counted positive when it falls. Read a high inhibition as strong suppression.

T3 sequence (O15554 whole entry): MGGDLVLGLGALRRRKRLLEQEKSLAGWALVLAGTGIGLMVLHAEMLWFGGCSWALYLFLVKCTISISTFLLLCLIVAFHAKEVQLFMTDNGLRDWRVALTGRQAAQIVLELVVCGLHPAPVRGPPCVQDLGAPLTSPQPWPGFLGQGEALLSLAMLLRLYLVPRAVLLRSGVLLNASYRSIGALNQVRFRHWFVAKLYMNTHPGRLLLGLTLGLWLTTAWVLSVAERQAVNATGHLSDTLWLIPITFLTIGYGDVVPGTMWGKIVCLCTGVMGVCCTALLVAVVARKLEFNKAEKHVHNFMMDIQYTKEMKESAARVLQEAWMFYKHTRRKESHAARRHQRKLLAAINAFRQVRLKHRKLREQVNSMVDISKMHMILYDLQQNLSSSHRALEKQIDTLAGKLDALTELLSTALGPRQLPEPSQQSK
T1 sequence (O89109 whole entry): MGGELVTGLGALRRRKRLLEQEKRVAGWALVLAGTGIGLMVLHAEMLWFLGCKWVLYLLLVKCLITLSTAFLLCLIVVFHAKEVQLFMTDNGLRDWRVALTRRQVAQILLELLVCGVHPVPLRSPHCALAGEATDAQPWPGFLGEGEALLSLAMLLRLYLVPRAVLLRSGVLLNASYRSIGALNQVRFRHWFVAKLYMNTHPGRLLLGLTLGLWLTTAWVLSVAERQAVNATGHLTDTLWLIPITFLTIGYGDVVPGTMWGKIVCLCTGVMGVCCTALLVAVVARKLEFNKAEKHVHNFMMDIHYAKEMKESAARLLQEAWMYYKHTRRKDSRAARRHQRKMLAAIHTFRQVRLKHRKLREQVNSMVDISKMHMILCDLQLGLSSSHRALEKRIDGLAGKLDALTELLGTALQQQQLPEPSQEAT
T2 sequence (O15554 whole entry): as the sequence (O15554 whole entry) above

`Clc1ccccc1C(c1ccccc1)(c1ccccc1)n1ccnc1` [Clotrimazole]: in series [1] (10 µM compound, NIH 3T3 mouse fibroblast cells), the “Mitogenic Assay Inhibition” value worked out at 93.0%. Also, the “red cell Gardos channel, K+ content, MCHC, cell density” value at red cell Gardos channel was “inhibition of the red cell Gardos channel, increased red cell K^+ content, a decreased mean cell hemoglobin concentration (MCHC) and decreased cell density”. The “Gardos channel inhibition and erythrocyte dehydration” value at Gardos channel is “induces inhibition of the Gardos channel and reduces erythrocyte dehydration”. Moreover, in series [2], the “number of lung metastases” value is “significant reduction in the number of lung metastases observed”.

`COC(=O)N1Cc2ccccc2C(c2ccccc2Cl)c2ccccc21` (stereo not drawn) [Compound 9, N-methoxycarbonyl-11-(2′-chlorophenyl)-5,6-dihydro-11H-dibenz[b,e]azepine]: the melting point was in the range of 159 to 161 °C. For the same molecule, the half-maximal inhibitory concentration (IC50) in series [1] was 2100 nM. Besides, in series [3], the 50% inhibitory concentration (IC50) lay within 85 to 93 nM and the inhibition at 10 µM was found to be 97.3%.

Turning to `O=C(Oc1ccccc1)N1Cc2ccccc2C(c2ccccc2)c2ccccc21` (stereo not drawn) [Compound 14, N-phenoxycarbonyl-11-phenyl-5,6-dihydro-11H-dibenz[b,e]azepine], the melting point lay within 155 to 165 °C. Further, the IC50 with HT29 (HT-29, HT29, 5% FCS/2 days, read-out: Test Compound IC50 Value in Cell Lines) was 10000 nM. The same molecule had an IC50 in series [1] of 40 nM. For the same molecule, the IC50 with MMRU (MMRU, 5% FCS/2 days, read-out: Test Compound IC50 Value in Cell Lines) was above 10000 nM. In series [3], this molecule came in with an IC50 above 10000 nM and an inhibition at 10 µM of 14.8%. Also, in the series on A549 (A549, A549, 5% FCS/2 days, read-out: Test Compound IC50 Value in Cell Lines), the half-inhibitory concentration (IC50) is above 10000 nM.

Turning to `O=C(Oc1ccccc1)N1Cc2ccccc2C(c2ccccc2Cl)c2ccccc21` (stereo not drawn) [Compound 26, N-phenoxycarbonyl-11-(2′-chlorophenyl)-5,6-dihydro-11H-dibenz[b,e]azepine], the melting point was 95 to 99 °C. Besides, in the series on MCF7 (setting [4]), the half-maximal inhibitory concentration (IC50) amounted to 5900 nM. Also, the 50% inhibitory concentration (IC50) in the series with HT29 (setting [5]) stood at 7200 nM. The concentration for half-maximal inhibition (IC50) in series [1] lay in the range of 40 to 900 nM. In addition, the IC50 in the series on U118MG (setting [6]) was found to be 5700 nM. Moreover, the IC50 in the series on MMRU (setting [7]) turned out to be 4900 nM. In series [3], this molecule came in with a concentration for half-maximal inhibition (IC50) above 10000 nM and an inhibition at 10 µM of 0.8%. The 50% inhibitory concentration (IC50) with A549 (setting [8]) was found to be 7000 nM. For the same molecule, in the series on HEPG2 (setting [9]), the 50% inhibitory concentration (IC50) stood at 5400 nM.

Turning to `COc1ccc2c(c1)CN(C(=O)c1ccc([N+](=O)[O-])cc1)c1ccc(Cl)cc1C2c1ccccc1Cl` (stereo not drawn) [Compound 30], the 50% inhibitory concentration (IC50) with MCF7 (setting [10]) is 1300 nM; with MCF7 (setting [4]) it was 1600 nM; in the series with HeLa it was 500 nM; in the series with HT29 (setting [11]), 600 nM; in the series with HT29 (setting [5]), below 1250 nM; in the series on L929, above 1000 nM. The IC50 in series [1] was 600 nM; with SK-OV-3, above 1000 nM; in the series with HUVEC it was above 1000 nM; in the series on HCT-15, 500 nM; in the series with U118MG (setting [12]) it was 800 nM; in the series with U118MG (setting [6]), below 1250 nM. Moreover, the IC50 is 500 nM in the series with MMRU (setting [13]); below 1250 nM with MMRU (setting [7]); above 1000 nM in the series with GM; 600 nM in the series with SK-MEL-28; above 10000 nM in series [3]; 700 nM with CaSki. The half-inhibitory concentration (IC50) in the series with 3T3 was above 1000 nM; in the series with HTB174 it was 500 nM; in the series on MDA-MB-23, 900 nM; in the series on ACHN, above 1000 nM; in the series with A549 (setting [14]) it was 1500 nM; in the series with A549 (setting [8]), 1700 nM. The half-maximal inhibitory concentration (IC50) is 900 nM in the series on HEPG2 (setting [15]), below 1250 nM in the series with HEPG2 (setting [9]) and above 1000 nM in the series on DU-145. 10 µM produced 14.6% inhibition in series [3].

As to `COc1cccc2c1C(c1ccccc1Cl)c1cc(Cl)ccc1N(C(=O)c1ccc([N+](=O)[O-])cc1)C2` (stereo not drawn) [Compound 31], the half-inhibitory concentration (IC50) in the series on MCF7 (setting [10]) is 700 nM; in the series on MCF7 (setting [4]) it was below 1250 nM; with HeLa, 200 nM; in the series with HT29 (setting [11]), 200 nM; with HT29 (setting [5]) it was below 1250 nM; in the series with L929, 900 nM. Also, the IC50 is 400 nM in series [1]; 600 nM in the series with SK-OV-3; 800 nM in the series with HUVEC; 300 nM in the series with HCT-15; 400 nM in the series with U118MG (setting [12]); below 1250 nM in the series on U118MG (setting [6]). Moreover, the half-maximal inhibitory concentration (IC50) was 200 nM in the series on MMRU (setting [13]); below 1250 nM with MMRU (setting [7]); above 1000 nM in the series with GM; 300 nM in the series with SK-MEL-28; above 10000 nM in [3]; 500 nM in the series on CaSki. The half-maximal inhibitory concentration (IC50) in the series with 3T3 is above 1000 nM; in the series with HTB174 it was 200 nM; with MDA-MB-23, 400 nM; in the series with ACHN, 800 nM; with A549 (setting [14]) it was 600 nM; in the series on A549 (setting [8]), below 1250 nM. The values for the IC50 in the series on HEPG2 (setting [15]), in the series with HEPG2 (setting [9]) and in the series on DU-145 were 400 nM, below 1250 nM and 900 nM, respectively. The same molecule returned an inhibition at 10 µM in [3] of 12.3%.

These data come from patent US20030134842A1, “METHODS FOR THE TREATMENT OR PREVENTION OF INFLAMMATORY DISEASES CHARACTERIZED BY ABNORMAL CELL PROLIFERATION” (priority 1997, published 2003).
